The results in this text go back to the CheMixHub viscosity set.

The structures appear in SMILES notation. Where “and” joins values, the source holds several entries; their conditions need not be identical. Equal values may be shown once. ± gives the uncertainty stated by the source.

Take `Cc1ccccc1Cl`: the viscosity (298.15 K, 100 kPa) was found to be 0.971 ± 0.059 mPa·s; the viscosity (303.15 K, 100 kPa) worked out at 0.886 ± 0.05 mPa·s; the viscosity (303.15 K, 101 kPa) is reported as 0.886 ± 0.023 mPa·s; the viscosity (308.15 K, 100 kPa) is 0.808 ± 0.05 mPa·s and 0.857 ± 0.052 mPa·s; the viscosity (308.15 K, 101 kPa) is 0.808 ± 0.022 mPa·s; the viscosity (313.15 K, 100 kPa) is 0.728 ± 0.05 mPa·s. Further, the viscosity is 0.741 ± 0.012 mPa·s and 0.728 ± 0.02 mPa·s (313.15 K, 101 kPa); 0.642 ± 0.05 mPa·s and 0.763 ± 0.046 mPa·s (318.15 K, 100 kPa); 0.642 ± 0.019 mPa·s (318.15 K, 101 kPa).

For the compound `NN`, the viscosity by setting is: (293.15 K, 101.3 kPa) 0.94 ± 0.03 mPa·s; (303 K, 101 kPa) 0.85 ± 0.027 mPa·s; (313 K, 101 kPa) 0.75 ± 0.024 mPa·s.

For the compound `CCCCCCCN`, the viscosity (303.15 K, 101 kPa) is given as 0.8789 ± 0.0074 mPa·s.

Take `CCCCCCCCCCCCC`: the viscosity reads like this: (293.15 K, 100 kPa) 1.8 ± 0.08 mPa·s and 1.803 mPa·s; (298.15 K, 100 kPa) 1.71 ± 0.037 mPa·s; (298.15 K, 103 kPa) 1.63 ± 0.042 mPa·s; (308.15 K, 100 kPa) 1.428 ± 0.031 mPa·s and 1.319 ± 0.13 mPa·s; (308.15 K, 103 kPa) 1.356 ± 0.042 mPa·s; (318.15 K, 100 kPa) 1.215 ± 0.026 mPa·s. Besides, the viscosity was 1.146 ± 0.041 mPa·s (318.15 K, 103 kPa); 1.124 ± 0.024 mPa·s and 1.1 ± 0.05 mPa·s and 1.104 mPa·s (323.15 K, 100 kPa).

As to `CCCCN(CCO)CCCC`, the viscosity (303.15 K, 100 kPa) turned out to be 4.6 mPa·s.

On to `C1C[C@@H]2[C@H]3CC[C@H](C3)[C@@H]2C1`, for which the viscosity reads like this: (293.15 K, 100 kPa) 2.974 ± 0.065 mPa·s and 3.07 ± 0.31 mPa·s; (298.15 K, 100 kPa) 2.785 ± 0.025 mPa·s and 2.694 ± 0.059 mPa·s; (298.15 K, 101 kPa) 2.77 ± 0.042 mPa·s; (298.15 K, 101.33 kPa) 2.769 ± 0.17 mPa·s; (303.15 K, 100 kPa) 2.535 ± 0.023 mPa·s and 2.454 ± 0.054 mPa·s; (308.15 K, 100 kPa) 2.243 ± 0.049 mPa·s. The compound further gave a viscosity (308.15 K, 101.33 kPa) of 2.283 ± 0.14 mPa·s.

As usually defined, the viscosity is the internal friction of a fluid under shear. High values mean sluggish flow, low ones easy flow.
